Laboratory results taken from PubChem BioAssay AID248 (DTP/NCI, 2004).
Where “and” joins values, the source holds several entries; their conditions need not be identical. Equal entries are not always repeated. Inconclusive results and toxic doses are left out. Rule as the data show it: active = T/C of 150% or more; inactive = T/C below 125%.

System: L1210 leukemia ip in BDF1 mice, survival T/C
Test: NCI In Vivo Anticancer Drug Screen. Data for tumor model L1210 Leukemia (intraperitoneal) in B6D2F1 (BDF1) mice
Settings: endpoint: mean survival time, higher = longer survival
Outline: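 Value reflects the ratio of survival in compound-treated mice to survival in vehicle-treated controls, with both groups carrying the same transplanted tumor.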

[1] = dose: 100.0 mg/kg/injection, schedule: Q01DX001 (ip), vehicle: saline
[2] = dose: 200.0 mg/kg/injection, schedule: Q01DX001 (ip), vehicle: saline
[3] = dose: 400.0 mg/kg/injection, schedule: Q01DX001 (ip), vehicle: saline
[4] = dose: 100.0 mg/kg/injection, schedule: Q01DX009 (ip), vehicle: Klucel (hydroxypropylcellulose) (HPC)
[5] = dose: 100.0 mg/kg/injection, schedule: Q04DX003 (ip), vehicle: Klucel (hydroxypropylcellulose) (HPC)
[6] = dose: 200.0 mg/kg/injection, schedule: Q01DX009 (ip), vehicle: Klucel (hydroxypropylcellulose) (HPC)
[7] = dose: 200.0 mg/kg/injection, schedule: Q04DX003 (ip), vehicle: Klucel (hydroxypropylcellulose) (HPC)
[8] = dose: 400.0 mg/kg/injection, schedule: Q01DX009 (ip), vehicle: Klucel (hydroxypropylcellulose) (HPC)
[9] = dose: 400.0 mg/kg/injection, schedule: Q04DX003 (ip), vehicle: Klucel (hydroxypropylcellulose) (HPC)
[10] = dose: 100.0 mg/kg/injection, schedule: Q01DX009 (ip), vehicle: saline
[11] = dose: 100.0 mg/kg/injection, schedule: Q04DX003 (ip), vehicle: saline
[12] = dose: 200.0 mg/kg/injection, schedule: Q01DX009 (ip), vehicle: saline
[13] = dose: 200.0 mg/kg/injection, schedule: Q04DX003 (ip), vehicle: saline
[14] = dose: 400.0 mg/kg/injection, schedule: Q01DX009 (ip), vehicle: saline
[15] = dose: 400.0 mg/kg/injection, schedule: Q04DX003 (ip), vehicle: saline
[16] = dose: 100.0 mg/kg/injection, schedule: Q01DX001 (ip), vehicle: saline with Tween-80
[17] = dose: 200.0 mg/kg/injection, schedule: Q01DX001 (ip), vehicle: saline with Tween-80
[18] = dose: 400.0 mg/kg/injection, schedule: Q01DX001 (ip), vehicle: saline with Tween-80
[19] = dose: 100.0 mg/kg/injection, schedule: Q01DX009 (ip), vehicle: saline with Tween-80
[20] = dose: 100.0 mg/kg/injection, schedule: Q04DX003 (ip), vehicle: saline with Tween-80
[21] = dose: 200.0 mg/kg/injection, schedule: Q04DX003 (ip), vehicle: saline with Tween-80
[22] = dose: 400.0 mg/kg/injection, schedule: Q04DX003 (ip), vehicle: saline with Tween-80
[23] = dose: 100.0 mg/kg/injection, schedule: Q04DX002 (ip), vehicle: Klucel (hydroxypropylcellulose) (HPC)
[24] = dose: 200.0 mg/kg/injection, schedule: Q04DX002 (ip), vehicle: Klucel (hydroxypropylcellulose) (HPC)
[25] = dose: 400.0 mg/kg/injection, schedule: Q04DX002 (ip), vehicle: Klucel (hydroxypropylcellulose) (HPC)
[26] = dose: 50.0 mg/kg/injection, schedule: Q01DX001 (ip), vehicle: saline
[27] = dose: 100.0 mg/kg/injection, schedule: Q04DX002 (ip), vehicle: saline with Tween-80
[28] = dose: 200.0 mg/kg/injection, schedule: Q01DX009 (ip), vehicle: saline with Tween-80
[29] = dose: 25.0 mg/kg/injection, schedule: Q01DX009 (ip), vehicle: Klucel (hydroxypropylcellulose) (HPC)
[30] = dose: 50.0 mg/kg/injection, schedule: Q01DX009 (ip), vehicle: Klucel (hydroxypropylcellulose) (HPC)
[31] = dose: 50.0 mg/kg/injection, schedule: Q01DX001 (ip), vehicle: carboxymethylcellulose (CMC)
[32] = dose: 100.0 mg/kg/injection, schedule: Q01DX001 (ip), vehicle: carboxymethylcellulose (CMC)

Measured: T/C

O=C1C2=C(c3ccccc31)C1c3ccccc3C(=O)C1(c1ccccc1)c1ccccc12 (stereo not drawn)
inactive: [1] 105 % of control | [2] 97 % of control | [3] 92 % of control

COc1cc(NCCS(C)(=O)=O)ccc1C(=O)Nc1ccccc1
inactive: [4] 105 % of control | [5] 97 % of control | [6] 97 % of control | [7] 94 % of control | [8] 101 % of control | [9] 94 % of control

CC1=Nc2ccc([N+](=O)[O-])cc2N=C(C)C1
inactive: [10] 95 % of control | [11] 105 % of control | [12] 93 % of control | [13] 96 % of control | [14] 92 % of control | [15] 96 % of control

c1ccc(Nc2nnnn2C2CCCCC2)cc1
inactive: [16] 104 % of control | [17] 95 % of control | [18] 93 % of control

O=[N+]([O-])c1ncn[nH]1
inactive: [19] 96 % of control | [20] 102 % of control | [21] 97 % of control | dose: 400.0 mg/kg/injection, schedule: Q01DX009 (ip), vehicle: saline with Tween-80 87 % of control | [22] 92 % of control

CSc1ccc(OC(=O)Nc2ccccc2C)cc1
inactive: [23] 95 % of control | [24] 106 % of control | [25] 114 % of control

NC(=O)C(c1ccccc1)C1(O)CCCCC1 (stereo not drawn)
inactive: [26] 102 % of control | [1] 104 % of control | [2] 96 % of control | [3] 91 % of control

CC(C(=O)c1cc(O)c(O)cc1C(O)(C(F)(F)F)C(F)(F)F)C(O)(C(F)(F)F)C(F)(F)F (stereo not drawn)
inactive: [20] 102 % of control | [21] 98 % of control | [22] 98 % of control

COc1ccc(CCNC(=O)C(=O)NCCc2ccc(OC)c(OC)c2)cc1OC
inactive: [5] 101 % of control | [7] 89 % of control | [9] 92 % of control

Cc1ccccc1/C=C1\CC(C)(C)c2ccccc2C1=O
inactive: [4] 105 % of control | [5] 95 % of control | [6] 97 % of control | [7] 95 % of control | [8] 97 % of control | [9] 97 % of control

CCCC(C)OS(=O)(=O)c1ccc(C)cc1 (stereo not drawn)
inactive: [10] 104 % of control | [27] 97 % of control | [12] 96 % of control | dose: 200.0 mg/kg/injection, schedule: Q04DX002 (ip), vehicle: saline with Tween-80 93 % of control | [14] 102 % of control | dose: 400.0 mg/kg/injection, schedule: Q04DX002 (ip), vehicle: saline with Tween-80 97 % of control

NC(CCCCn1nnc2c(=O)[nH]cnc21)C(=O)O (stereo not drawn)
inactive: [11] 106 % of control | [13] 103 % of control | [15] 97 % of control

CC1(C)OC(=O)C(=Cc2c(Cl)cccc2Cl)C(=O)O1
inactive: [1] 98 % of control | [19] 104 % of control | [11] 99 % of control | [2] 95 % of control | [28] 92 % of control | [13] 94 % of control | [3] 96 % of control | [15] 97 % of control

O=Ic1ccccc1
inactive: [29] 103 % of control | [30] 98 % of control | dose: 50.0 mg/kg/injection, schedule: Q04DX003 (ip), vehicle: Klucel (hydroxypropylcellulose) (HPC) 93 % of control | [5] 89 % of control

O=C1CCC(=O)N1c1ccc(Br)cc1
inactive: [31] 102 % of control | [32] 102 % of control | dose: 200.0 mg/kg/injection, schedule: Q01DX001 (ip), vehicle: carboxymethylcellulose (CMC) 98 % of control | dose: 400.0 mg/kg/injection, schedule: Q01DX001 (ip), vehicle: carboxymethylcellulose (CMC) 98 % of control

O=C(NCCS)c1ccc(C(=O)NCCS)cc1
inactive: [23] 95 % of control | [24] 103 % of control | [25] 103 % of control

C/C(=C/c1ccccc1)S(=O)(=O)c1ccccc1
inactive: [1] 105 % of control | [10] 91 % of control | [2] 100 % of control | [12] 94 % of control | [3] 105 % of control | [14] 93 % of control

CCCCCCCC/C=C\CCCCCCCC(=O)O.[Cu+2]
inactive: [1] 105 % of control | [2] 96 % of control

CCOP(=O)(CSc1ccccc1)OCC
inactive: dose: 25.0 mg/kg/injection, schedule: Q01DX009 (ip), vehicle: saline with Tween-80 93 % of control | dose: 25.0 mg/kg/injection, schedule: Q04DX002 (ip), vehicle: saline with Tween-80 107 % of control | dose: 50.0 mg/kg/injection, schedule: Q01DX009 (ip), vehicle: saline with Tween-80 100 % of control | dose: 50.0 mg/kg/injection, schedule: Q04DX002 (ip), vehicle: saline with Tween-80 107 % of control | [27] 86 % of control

CCC1CN2CCc3cc(OC)c(OC)cc3C2CC1O (stereo not drawn)
inactive: [19] 97 % of control | [28] 110 % of control

CC(C)(CO)NCC1CCCC(CNC(C)(C)CO)C1 (stereo not drawn)
inactive: [31] 92 % of control | [32] 101 % of control

Cc1c2ccccc2nc(CNC2CCCCC2)[n+]1[O-]
inactive: dose: 12.5 mg/kg/injection, schedule: Q01DX001 (ip), vehicle: saline 98 % of control | dose: 25.0 mg/kg/injection, schedule: Q01DX001 (ip), vehicle: saline 97 % of control | [26] 90 % of control

O=C(O)C(=O)Nc1ncn[nH]1
inactive: dose: 6.25 mg/kg/injection, schedule: Q01DX009 (ip), vehicle: Klucel (hydroxypropylcellulose) (HPC) 104 % of control | dose: 12.5 mg/kg/injection, schedule: Q01DX005 (ip), vehicle: Klucel (hydroxypropylcellulose) (HPC) 102 % of control | dose: 12.5 mg/kg/injection, schedule: Q01DX009 (ip), vehicle: Klucel (hydroxypropylcellulose) (HPC) 96 % of control and 104 % of control | [29] 100 % of control and 104 % of control | dose: 50.0 mg/kg/injection, schedule: Q01DX005 (ip), vehicle: Klucel (hydroxypropylcellulose) (HPC) 105 % of control and 106 % of control | [30] 107 % of control and 114 % of control | [23] 96 % of control | [24] 98 % of control

CCC1=C/C(=C/c2cccc(OC)c2O)C(=O)S1
inactive: [16] 97 % of control | [17] 97 % of control | [18] 87 % of control

COC(=O)C1C2CCc3cc(OC)ccc3C2CC(=O)C1(C)C(=O)OC (stereo not drawn)
inactive: dose: 100.0 mg/kg/injection, schedule: Q01DX009 (sc), vehicle: steriod suspending solution 98 % of control | dose: 200.0 mg/kg/injection, schedule: Q01DX009 (sc), vehicle: steriod suspending solution 98 % of control | dose: 400.0 mg/kg/injection, schedule: Q01DX009 (sc), vehicle: steriod suspending solution 107 % of control

COC(=O)c1cc(C(=O)OC(C)(C)C)c(-c2ccc(OC)c(OC)c2)c2cc(OC)c(OC)cc12
inactive: [1] 100 % of control | [2] 101 % of control | [3] 103 % of control

CCOC(=O)C1CCC(NC(=O)c2ccccc2)CC1 (stereo not drawn)
inactive: dose: 100.0 mg/kg/injection, schedule: Q01DX001 (ip), vehicle: Klucel (hydroxypropylcellulose) (HPC) 93 % of control | [5] 100 % of control | dose: 200.0 mg/kg/injection, schedule: Q01DX001 (ip), vehicle: Klucel (hydroxypropylcellulose) (HPC) 93 % of control | [7] 98 % of control | dose: 400.0 mg/kg/injection, schedule: Q01DX001 (ip), vehicle: Klucel (hydroxypropylcellulose) (HPC) 93 % of control | [9] 94 % of control

CC(C)(C)C1C(=O)N1C(C)(C)C (stereo not drawn)
inactive: [4] 103 % of control | [5] 101 % of control | [6] 101 % of control | [7] 97 % of control | [9] 97 % of control
